# How the values were obtained:
# human JAK3 = biological target: T1, human JAK3 (Homo sapiens, UniProt P52333); test: JAK3 inhibition assay; format: biochemical; conditions: recombinant human JAK3 catalytic domain; polyGT substrate
# T1 construct: catalytic domain (amino acids 781-1124; catalog number PV3855); purchased Invitrogen PV3855
# Method in brief: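 Radiometric kinase assay: 0.5 ng JAK3 with 2.5 μg polyGT in Tris pH 7.5/MgCl2 buffer, 1 μM ATP plus 0.25 μCi 33P-γ-ATP, 1% DMSO, 45 min at 30 °C, stopped with phosphoric acid.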
# human TYK2 = biological target: T2, human TYK2 (Homo sapiens, UniProt P29597); test: TYK2 inhibition assay; format: biochemical; conditions: recombinant human TYK2 catalytic domain, polyGT substrate
# T2 construct: catalytic domain (amino acids 871-1187; catalog number 08-147); purchased Carna Biosciences 08-147
# T2 sequence (P29597 871-1187): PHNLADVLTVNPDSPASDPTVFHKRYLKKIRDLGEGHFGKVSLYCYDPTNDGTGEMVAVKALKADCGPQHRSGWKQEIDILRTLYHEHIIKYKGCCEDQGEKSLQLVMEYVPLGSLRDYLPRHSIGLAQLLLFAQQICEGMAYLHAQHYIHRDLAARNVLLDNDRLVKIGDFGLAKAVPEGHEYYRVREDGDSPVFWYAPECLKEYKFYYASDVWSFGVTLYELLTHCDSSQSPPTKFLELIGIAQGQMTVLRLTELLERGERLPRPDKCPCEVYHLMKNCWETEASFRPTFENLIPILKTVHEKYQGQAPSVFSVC
# Method in brief: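 Radiometric kinase reaction run 90 min at 30 °C, stopped with phosphoric acid, washed and scintillation-counted.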
# CTLL-2 cell line = test: CTLL2 viability assay; format: cell-based; conditions: Mus musculus, IL-2 dependent CTLL2 viability, 24 h, ATP-lite
# Excerpt: The protocol describes the methods to analyse the activity of compounds on their ability to sustain the IL2-dependent viability of CTLL2.
# Final DMSO concentration was 0.1%.
# BA/F3 cell line = test: BA/F3 viability assay; conditions: Mus musculus, BaF3, 48 h, read-out: BA/F3 IC50
# T1 sequence (P52333 781-1124): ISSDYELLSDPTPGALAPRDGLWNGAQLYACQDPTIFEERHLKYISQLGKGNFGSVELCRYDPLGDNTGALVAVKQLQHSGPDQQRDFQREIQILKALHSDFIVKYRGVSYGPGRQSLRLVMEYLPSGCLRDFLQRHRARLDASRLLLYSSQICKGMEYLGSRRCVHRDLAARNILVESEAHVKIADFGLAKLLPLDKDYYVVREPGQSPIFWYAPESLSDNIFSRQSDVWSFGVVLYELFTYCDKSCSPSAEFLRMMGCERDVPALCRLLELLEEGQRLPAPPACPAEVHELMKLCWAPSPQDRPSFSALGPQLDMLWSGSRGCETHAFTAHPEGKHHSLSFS
Structure (SMILES),IC50 (human JAK3),IC50 (human TYK2),IC50 (BA/F3 cell line),IC50 (CTLL-2 cell line)
"CCc1cc(-c2cnn(C)c2)ccc1N(C)c1cc2c(cn1)ncn2C [Compound 93, N-(2-Ethyl-4-(1-methyl-1H-pyrazol-4-yl)phenyl)-N,1-dimethyl-1H-imidazo[4,5-d]pyridin-6-amine]",101 to 500 nM,0.01 to 100 nM,> 5000 nM,> 1000 nM
"COc1cc(S(=O)(=O)N2CCOCC2)ccc1N(C)c1cc2c(cn1)ncn2C [Compound 315, [2-Methoxy-4-(morpholine-4-sulfonyl)-phenyl]-methyl-(1-methyl-1H-imidazo[4,5-d]pyridin-6-yl)-amine]",> 1000 nM,> 1000 nM,–,–
"CN(c1cc2c(cn1)ncn2C)c1ccccc1OC(F)F [Compound 39, N-(2-(difluoromethoxy)phenyl)-N,1-dimethyl-1H-imidazo[4,5-c]pyridin-6-amine]",501 to 1000 nM,501 to 1000 nM,–,–
"Cc1c(OCC#N)cccc1N(C)c1cc2c(cn1)ncn2C [Compound 64, 2-(2-methyl-3-(methyl(1-methyl-1H-imidazo[4,5-c]pyridin-6-yl)amino)phenoxy)acetoni-trile]",101 to 500 nM,101 to 500 nM,–,–
"Cc1ccc(OCc2ccc(Cl)cc2)cc1N(C)c1cc2c(cn1)ncn2C [Compound 62, N-(5-(4-chlorobenzyloxy)-2-methylphenyl)-N,1-dimethyl-1H-imidazo[4,5-c]pyridin-6-amine]",> 1000 nM,> 1000 nM,–,–
"CCc1ccc(C#N)cc1N(C)c1cc2c(cn1)ncn2C [Compound 83, 4-ethyl-3-(methyl(1-methyl-1H-imidazo[4,5-c]pyridin-6-yl)amino)benzonitrile]",> 1000 nM,101 to 500 nM,–,–
"CCc1cc(CNS(=O)(=O)C(F)F)ncc1N(C)c1cc2c(cn1)ncn2C [Compound 343, N-{4-Ethyl-5-[methyl-(1-methyl-1H-imidazo[4,5-c]pyridin-6-yl)-amino]-pyridin-2-ylmethyl}-C,C-difluoro-methane sulfonamide]",101 to 500 nM,501 to 1000 nM,–,> 1000 nM
"CCc1ccc(F)cc1N(C)c1cc2c(cn1)ncn2C [Compound 84, N-(2-ethyl-5-fluorophenyl)-N,1-dimethyl-1H-imidazo[4,5-c]pyridin-6-amine]",501 to 1000 nM,101 to 500 nM,–,–
"COc1ccc(COc2ccc(C)c(N(C)c3cc4c(cn3)ncn4C)c2)cc1 [Compound 43, N-(5-(4-methoxybenzyloxy)-2-methylphenyl)-N,1-dimethyl-1H-imidazo[4,5-c]pyridin-6-amine]",> 1000 nM,> 1000 nM,–,–
"CCNC(=O)c1ccc(N(C)c2cc3c(cn2)ncn3C)c(CC)c1 [Compound 102, N,3-diethyl-4-(methyl(1-methyl-1H-imidazo[4,5-c]pyridin-6-yl)amino)benzamide]",> 1000 nM,101 to 500 nM,–,–
"COc1ccc(COc2ccc(N(C)c3cc4c(cn3)ncn4C)c(C)c2)cc1 [Compound 33, N-(4-(4-Methoxybenzyloxy)-2-methylphenyl)-N,1-dimethyl-1H-imidazo[4,5-c]pyridin-6-amine]",> 1000 nM,> 1000 nM,–,–
CCc1cc(C(=O)NC)ccc1N(C)c1cc2c(cn1)ncn2C [Compound 85],> 1000 nM,101 to 500 nM,–,–
"CCc1cc(-c2ccc(C#N)nc2)ccc1N(C)c1cc2c(cn1)ncn2C [Compound 114, 5-(3-ethyl-4-(methyl(1-methyl-1H-imidazo[4,5-c]pyridin-6-yl)amino)phenyl)picolino-nitrile]",101 to 500 nM,0.01 to 100 nM,–,–
"CCc1cc(-c2cccnc2)ccc1N(C)c1cc2c(cn1)ncn2C [Compound 94, N-(2-ethyl-4-(pyridin-3-yl)phenyl)-N,1-dimethyl-1H-imidazo[4,5-c]pyridin-6-amine]",501 to 1000 nM,0.01 to 100 nM,–,–
"CCc1cc(C2CN(C(C)=O)C2)ncc1N(C)c1cc2c(cn1)ncn2C [Compound 332, 1-(3-{4-Ethyl-5-[methyl-(1-methyl-1H-imidazo[4,5-c]pyridin-6-yl)-amino]-pyridin-2-yl}-azetidin-1-yl)-ethanone]",> 1000 nM,> 1000 nM,–,–
"Cc1cc(OCCCC#N)ccc1N(C)c1cc2c(cn1)ncn2C [Compound 48, 4-(3-methyl-4-(methyl(1-methyl-1H-imidazo[4,5-c]pyridin-6-yl)amino)phenoxy)butane nitrile]",> 1000 nM,501 to 1000 nM,–,–
"CCc1ccccc1N(CC(F)F)c1cc2c(cn1)ncn2C [Compound 463, N-(2,2-difluoroethyl)-N-(2-ethylphenyl)-1-methyl-1H-imidazo[4,5-c]pyridin-6-amine]",101 to 500 nM,0.01 to 100 nM,–,–
"CCc1cc(COC)ccc1N(C)c1cc2c(cn1)ncn2C [Compound 105, N-(2-Ethyl-4-(methoxymethyl)phenyl)-N,1-dimethyl-1H-imidazo[4,5-c]pyridin-6-amine]",101 to 500 nM,0.01 to 100 nM,–,–
"COC(=O)c1ccc(N(C)c2cc3c(cn2)ncn3C)c(C)c1 [Compound 27, Methyl 3-methyl-4-(methyl(1-methyl-1H-imidazo[4,5-c]pyridin-6-yl)amino)benzoate]",> 1000 nM,> 1000 nM,–,–
"Cc1cc(C#N)ccc1N(C)c1cc2c(cn1)ncn2C [Compound 31, 3-Methyl-4-(methyl(1-methyl-1H-imidazo[4,5-c]pyridin-6-yl)amino)benzonitrile]",> 1000 nM,501 to 1000 nM,–,–
"Cc1ccc(OCc2ccccc2)cc1N(C)c1cc2c(cn1)ncn2C [Compound 56, N-(5-(benzyloxy)-2-methylphenyl)-N,1-dimethyl-1H-imidazo[4,5-c]pyridin-6-amine]",> 1000 nM,> 1000 nM,–,–
"CNC(=O)c1ccc(N(C)c2cc3c(cn2)ncn3C)c(C)c1 [Compound 30, N,3-Dimethyl-4-(methyl(1-methyl-1H-imidazo[4,5-c]pyridin-6-yl)amino)-benzamide]",> 1000 nM,> 1000 nM,–,–

# Second part, led by results:
IC50 (human JAK3),IC50 (human TYK2),IC50 (BA/F3 cell line),Structure (SMILES),IC50 (CTLL-2 cell line)
101 to 500 nM,501 to 1000 nM,> 5000 nM,"CCc1cc(C2CN(C(=O)C(F)(F)F)C2)ncc1N(C)c1cc2c(cn1)ncn2C [Compound 334, 1-(3-{4-Ethyl-5-[methyl-(1-methyl-1H-imidazo[4,5-c]pyridin-6-yl)-amino]-pyridin-2-yl}-azetidin-1-yl)-2,2,2-trifluoro-ethanone]",> 1000 nM
501 to 1000 nM,501 to 1000 nM,> 5000 nM,"CCc1cc(C2CN(C(=O)C(F)F)C2)ncc1N(C)c1cc2c(cn1)ncn2C [Compound 333, 1-(3-{4-Ethyl-5-[methyl-(1-methyl-1H-imidazo[4,5-c]pyridin-6-yl)-amino]-pyridin-2-yl}-azetidin-1-yl)-2,2-difluoro-ethanone]",> 1000 nM
0.01 to 100 nM,0.01 to 100 nM,1000 to 5000 nM,"CCc1cc(CNS(=O)(=O)C(F)F)c(F)cc1N(C)c1cc2c(cn1)ncn2C [Compound 327, N-{5-Ethyl-2-fluoro-4-[methyl-(1-methyl-M-imidazo[4,5-c]pyridin-6-yl)-amino]-benzyl}-C,C-difluoro-methanesulfonamide]",501 to 1000 nM
> 1000 nM,501 to 1000 nM,–,"CCc1cc(C2CN(CC#N)C2)ncc1N(C)c1cc2c(cn1)ncn2C [Compound 331, (3-{4-Ethyl-5-[methyl-(1-methyl-1H-imidazo[4,5-c]pyridin-6-yl)-amino]-pyridin-2-yl}-azetidin-1-yl)-acetonitrile]",–
101 to 500 nM,0.01 to 100 nM,–,"CCc1cc(-c2ccc(C)s2)ncc1N(C)c1cc2c(cn1)ncn2C [Compound 311, [4-Ethyl-6-(5-methyl-thiophen-2-yl)-pyridin-3-yl]-methyl-(1-methyl-1H-imidazo[4,5-c]pyridin-6-yl)-amine]",–
> 1000 nM,> 1000 nM,–,"Cc1cc(C(N)=O)ccc1N(C)c1cc2c(cn1)ncn2C [Compound 32, 3-Methyl-4-(methyl(1-methyl-1H-imidazo[4,5-c]pyridin-6-yl)amino)benzamide]",–
101 to 500 nM,501 to 1000 nM,–,"Cc1ccc(OCC#N)cc1N(C)c1cc2c(cn1)ncn2C [Compound 57, 2-(4-methyl-3-(methyl(1-methyl-1H-imidazo[4,5-c]pyridin-6-yl)amino)phenoxy)acetoni-trile]",–
> 1000 nM,> 1000 nM,–,"CCc1cc(-c2ccc(CN)s2)ncc1N(C)c1cc2c(cn1)ncn2C [Compound 303, [6-(5-Aminomethyl-thiophen-2-yl)-4-ethyl-pyridin-3-yl]-methyl-(1-methyl-1H-imidazo[4,5-c]pyridin-6-yl)-amine]",–
> 1000 nM,> 1000 nM,–,COc1cc(-c2c(C)nn(C)c2C)ncc1N(C)c1cc2c(cn1)ncn2C [Compound 312],–
501 to 1000 nM,101 to 500 nM,–,"Cc1cc(OCC#N)ccc1N(C)c1cc2c(cn1)ncn2C [Compound 47, 2-(3-methyl-4-(methyl(1-methyl-1H-imidazo[4,5-c]pyridin-6-yl)amino)phenoxy)acetoni-trile]",–

# From patent US20130217664A1, “NOVEL COMPOUNDS USEFUL FOR THE TREATMENT OF DEGENERATIVE AND INFLAMMATORY DISEASES” (priority 2012, published 2013)
